{
  "source": "BindingDB's records for doi:10.1016/j.bmcl.2012.11.092",
  "about": "(Vanderbilt University Medical Center, 2012)",
  "target": "T1, Muscarinic acetylcholine receptor M1 (Homo sapiens, UniProt P11229)",
  "T1 sequence (P11229 whole entry)": "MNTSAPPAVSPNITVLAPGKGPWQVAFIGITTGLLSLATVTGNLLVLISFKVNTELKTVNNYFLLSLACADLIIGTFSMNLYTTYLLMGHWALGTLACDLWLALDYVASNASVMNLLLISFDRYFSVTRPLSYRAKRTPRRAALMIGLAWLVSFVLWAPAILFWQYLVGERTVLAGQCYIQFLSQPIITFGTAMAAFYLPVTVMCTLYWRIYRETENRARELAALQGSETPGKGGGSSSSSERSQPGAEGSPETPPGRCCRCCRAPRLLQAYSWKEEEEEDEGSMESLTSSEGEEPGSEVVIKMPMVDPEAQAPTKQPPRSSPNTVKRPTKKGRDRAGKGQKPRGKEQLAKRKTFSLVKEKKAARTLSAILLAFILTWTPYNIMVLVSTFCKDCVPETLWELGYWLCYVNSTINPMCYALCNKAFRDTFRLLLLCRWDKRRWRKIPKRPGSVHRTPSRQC",
  "test": "Positive allosteric modulator activity at human muscarinic M1 receptor by calcium mobilization assay",
  "note": "Several values for one entry are separate records, joined by “and”; a condition that tells them apart may be missing. Equal values may be shown once.",
  "data": [
    {"compound": "Cn1cc(-c2ccc(CN3C(=O)C(O)(C(F)(F)F)c4ccccc43)c(F)c2)cn1", "note": "(stereo unspecified)", "values": [
      {"measurement": "EC50", "result": "3.31 µM and 3.3 µM"}
    ]}
  ]
}
